Results from patent US4921850A, “3-propenylcephem derivative” (Eisai Co., Ltd., priority 1986, dated 1990).
Values after ≈ are worked out from the molar mass of the structure shown. Where two headings read alike, the source gives them in different places.

Columns and labels:
in vivo = details: read-out: values of acute toxicity
Source text: (1) Acute toxicity in mouse:
The compounds according to this invention dissolved in a physiological saline solution were intravenously dosed to five ICR male 6 weeks-old mouse.

Escher. coli NIHJ = experiment: Anti-bacterial activity (MIC), agar dilution; assay type: cell-based
Outline: (§1)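 MIC values (μg/ml) come from agar dilution: strains grown overnight in Mueller-Hinton broth, diluted to roughly 10^6 CFU/ml, spotted on Mueller-Hinton agar containing twofold serial antibiotic dilutions, and read after 18 hours at 37° C.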

Kleb. pneumoniae EK-6 = experiment: Anti-bacterial activity (MIC), agar dilution; assay type: cell-based; details: Kleb. pneumoniae EK-6, agar dilution, about 10^6 CFU/ml, 18 hours, 37° C.
Outline: as §1

[1] = tested on: Morganella morganii EP-14; experiment: Anti-bacterial activity (MIC), agar dilution; assay type: cell-based; details: about 10^6 CFU/ml, 37° C.
Outline: as §1

Pseud. aeruginosa EP-01 = experiment: Anti-bacterial activity (MIC), agar dilution; assay type: cell-based
Outline: as §1

Ser. marcescens ES-75 = experiment: Anti-bacterial activity (MIC), agar dilution; assay type: cell-based; details: Ser. marcescens ES-75, agar dilution, about 10^6 CFU/ml, 18 hours, 37° C.
Outline: as §1

Staph. aureus 209-P = experiment: Anti-bacterial activity (MIC), agar dilution; assay type: cell-based; details: Staph. aureus 209-P, agar dilution, about 10^6 CFU/ml, 18 hours, 37° C.
Outline: as §1

[2] = intravenous, physiological saline solution, five ICR male 6 weeks-old mouse
[3] = Klebsiella pneumoniae, EK6, 18 h, read-out: MIC
[4] = Morganella morganii, EP14, 18 h, read-out: MIC
[5] = Serratia marcescens, ES75, 18 h, read-out: MIC
[6] = Staphylococcus aureus, 209P, 18 h, read-out: MIC
[7] = Escherichia coli, 18 h, Escher. coli NIHJ, agar dilution, about 10^6 CFU/ml, 18 hours, 37° C., read-out: MIC
[8] = Pseudomonas aeruginosa, EP01, 18 h, Pseud. aeruginosa EP-01, agar dilution, about 10^6 CFU/ml, 18 hours, 37° C., read-out: MIC

| Structure (SMILES) | LD50 (in vivo; [2]) [mg/kg] | MIC (Escher. coli NIHJ; Escherichia coli, 18 h) [µg/mL] | MIC (Kleb. pneumoniae EK-6; [3]) [µg/mL] | MIC [1, 4] [µg/mL] | MIC (Pseud. aeruginosa EP-01; Pseudomonas aeruginosa, EP01, 18 h) [µg/mL] | MIC (Ser. marcescens ES-75; [5]) [µg/mL] | MIC (Staph. aureus 209-P; [6]) [µg/mL] | LD50 (in vivo; mouse, iv) [mg/kg] | MIC (Escher. coli NIHJ; [7]) [µg/mL] | MIC (Pseud. aeruginosa EP-01; [8]) [µg/mL] | MIC (Escher. coli NIHJ; Escher. coli NIHJ, agar dilution, about 10^6 CFU/ml, 18 hours, 37° C.) [µg/mL] | MIC (Kleb. pneumoniae EK-6) [µg/mL] | MIC ([1]; 18 hours) [µg/mL] | MIC (Pseud. aeruginosa EP-01; Pseud. aeruginosa EP-01, agar dilution, about 10^6 CFU/ml, 18 hours, 37° C.) [µg/mL] | MIC (Ser. marcescens ES-75) [µg/mL] | MIC (Staph. aureus 209-P) [µg/mL] |
| --- | --- | --- | --- | --- | --- | --- | --- | --- | --- | --- | --- | --- | --- | --- | --- | --- |
| NC(=O)C1CC[N+](C/C=C/C2=C(C(=O)[O-])N3C(=O)[C@@H](NC(=O)/C(=N\OCF)c4nsc(N)n4)[C@H]3SC2)(CCO)CC1 (single isomer, unassigned) [Example 2-1, 7β-[2-(5-Amino-1,2,4-thiadiazol-3-yl)-(Z)-2-fluoromethoxyiminoacetamido]-3-[(E)-3-[1-(2-hydroxyethyl)-4-carbamoyl-1-piperidinio]-1-propen-1-yl]-3-cephem-4-carboxylate] | > 2000 | 0.05 (≈ 0.0816 µM) | 0.05 (≈ 0.0816 µM) | 0.05 (≈ 0.0816 µM) | 1.56 (≈ 2.55 µM) | 0.05 (≈ 0.0816 µM) | 0.4 (≈ 0.653 µM) |  |  |  |  |  |  |  |  |  |
| C[N+]1(C/C=C/C2=C(C(=O)[O-])N3C(=O)[C@@H](NC(=O)/C(=N\OCF)c4nsc(N)n4)[C@H]3SC2)C[C@H](O)C[C@@H]1CO (single isomer, unassigned) [Example 6-1, 7β-[2-(5-Amino-1,2,4-thiadiazol-3-yl)-(Z)-2-fluoromethoxyiminoacetamido]-3-[(E)-3-(4R-hydroxy-2R-hydroxymethyl-1-methyl-1-pyrrolidinio)-1-propen-1-yl]-3-cephem-4-carboxylate] |  |  | ≤ 0.025 | ≤ 0.025 |  | ≤ 0.025 | 0.2 (≈ 0.35 µM) | > 2000 | 0.05 (≈ 0.0875 µM) | 0.8 (≈ 1.4 µM) |  |  |  |  |  |  |
| Nc1nc(/C(=N/OCF)C(=O)N[C@@H]2C(=O)N3C(C(=O)[O-])=C(/C=C/C[N+]4(CCO)C[C@H](O)C[C@H]4CO)CS[C@H]23)ns1 (single isomer, unassigned) [Example 7-2, 7β-[2-(5-Amino-1,2,4-thiadiazol-3-yl)-(Z)-2-fluoromethoxyiminoacetamido]-3-[(E)-3-[4R-hydroxy-1-(2-hydroxyethyl)-2S-hydroxymethyl-1-pyrrolidinio]-1-propen-1-yl]-3-cephem-4-carboxylate] | > 2000 |  |  |  |  |  |  |  |  |  | ≤ 0.025 | ≤ 0.025 | ≤ 0.025 | 0.8 (≈ 1.33 µM) | ≤ 0.025 | 0.2 (≈ 0.332 µM) |
| CC(C(N)=O)[N+]1(C/C=C/C2=C(C(=O)[O-])N3C(=O)[C@@H](NC(=O)/C(=N\OCF)c4nsc(N)n4)[C@H]3SC2)CCCC1 (single isomer, unassigned) [Example 13-1] | > 2000 |  | ≤ 0.025 | ≤ 0.025 |  | ≤ 0.025 | 0.2 (≈ 0.343 µM) |  | ≤ 0.025 | 0.8 (≈ 1.37 µM) |  |  |  |  |  |  |
| C[C@@H](C(N)=O)[N+](C)(C)C/C=C/C1=C(C(=O)[O-])N2C(=O)[C@@H](NC(=O)/C(=N\OCF)c3nsc(N)n3)[C@H]2SC1 [Example 3-1] | > 2000 |  | ≤ 0.025 | ≤ 0.025 |  | 0.05 (≈ 0.0898 µM) | 0.2 (≈ 0.359 µM) |  | ≤ 0.025 | 0.8 (≈ 1.44 µM) |  |  |  |  |  |  |
| C[C@H](C(N)=O)[N+](C)(C)C/C=C/C1=C(C(=O)[O-])N2C(=O)[C@@H](NC(=O)/C(=N\OCF)c3nsc(N)n3)[C@H]2SC1 [Example 3-2, 7β-[2-(5-Amino-1,2,4-thiadiazol-3-yl)-(Z)-2-fluoromethoximinoacetamido]-3-[(E)-3-[(1R-carbamoylethyl)dimethylammonio]-1-propen-1-yl]-3-cephem-4-carboxylate] | > 2000 |  | ≤ 0.025 | ≤ 0.025 |  | 0.1 (≈ 0.18 µM) | 0.2 (≈ 0.359 µM) |  | ≤ 0.025 | 1.56 (≈ 2.8 µM) |  |  |  |  |  |  |
| C[N+](C)(C/C=C/C1=C(C(=O)[O-])N2C(=O)[C@@H](NC(=O)/C(=N\OCF)c3nsc(N)n3)[C@H]2SC1)[C@H](CO)C(N)=O [Example 5, 7β-[2-(5-Amino-1,2,4-thiadiazol-3-yl)-(Z)-2-fluoromethoxyiminoacetamido]-3-[(E)-3-[(1R-carbamoyl-2-hydroxyethyl)dimethylammonio]-1-propen-1-yl]-3-cephem-4-carboxylate] | > 2000 |  | ≤ 0.025 | ≤ 0.025 |  | ≤ 0.025 | 0.2 (≈ 0.349 µM) |  | ≤ 0.025 | 0.8 (≈ 1.4 µM) |  |  |  |  |  |  |
| CC(=O)C[N+](C)(C)C/C=C/C1=C(C(=O)[O-])N2C(=O)[C@@H](NC(=O)/C(=N\OCF)c3nsc(N)n3)[C@H]2SC1 [Example 137, 7β-[2-(5-Amino-1,2,4-thiadiazol-3-yl)-(Z)-2-fluoromethoxyiminoacetamido]-3-[(E)-3-[(2-oxopropyl)dimethylammonio]-1-propen-1-yl]-3-cephem-4-carboxylate] | > 2000 |  |  |  |  |  |  |  |  |  |  |  |  |  |  |  |
| CC(O)C[N+](C)(C)C/C=C/C1=C(C(=O)[O-])N2C(=O)[C@@H](NC(=O)/C(=N\OCC#N)c3nsc(N)n3)[C@H]2SC1 (some centres unmarked) [Example 149] |  |  | 0.05 (≈ 0.0908 µM) | 0.05 (≈ 0.0908 µM) |  | 0.05 (≈ 0.0908 µM) | 0.2 (≈ 0.363 µM) |  | 0.1 (≈ 0.182 µM) | 1.56 (≈ 2.83 µM) |  |  |  |  |  |  |
| C[C@@H](O)[C@@H](C(N)=O)[N+](C)(C)C/C=C/C1=C(C(=O)[O-])N2C(=O)[C@@H](NC(=O)/C(=N\OCC#N)c3nsc(N)n3)[C@H]2SC1 [Example 153] |  |  | 0.1 (≈ 0.168 µM) | 0.1 (≈ 0.168 µM) |  | 0.1 (≈ 0.168 µM) | 0.4 (≈ 0.674 µM) |  | 0.2 (≈ 0.337 µM) | 1.56 (≈ 2.63 µM) |  |  |  |  |  |  |
| C[N+]1(C/C=C/C2=C(C(=O)[O-])N3C(=O)[C@@H](NC(=O)/C(=N\OCC#N)c4nsc(N)n4)[C@H]3SC2)CCN(S(N)(=O)=O)CC1 [Example 156] |  |  | 0.1 (≈ 0.16 µM) | 0.1 (≈ 0.16 µM) |  | 0.1 (≈ 0.16 µM) | 0.4 (≈ 0.638 µM) |  | 0.1 (≈ 0.16 µM) | 0.8 (≈ 1.28 µM) |  |  |  |  |  |  |
| N#CCO/N=C(\C(=O)N[C@@H]1C(=O)N2C(C(=O)[O-])=C(/C=C/C[N+]34CCN(CC3)CC4)CS[C@H]12)c1nsc(N)n1 [Example 157, 7β-[2-(5-Amino-1,2,4-thiadiazol-3-yl)-(Z)-2-cyanomethoxyiminoacetoamido]-3-[(E)-3-(1,4-diazabicyclo[2,2,2]octane-1-io)-1-propen-1-yl]-3-cephem-4-carboxylate] |  |  | 0.1 (≈ 0.179 µM) | 0.1 (≈ 0.179 µM) |  | 0.2 (≈ 0.357 µM) | 0.4 (≈ 0.715 µM) |  | 0.1 (≈ 0.179 µM) | 1.56 (≈ 2.79 µM) |  |  |  |  |  |  |
| N#CCO/N=C(\C(=O)N[C@@H]1C(=O)N2C(C(=O)[O-])=C(/C=C/C[n+]3ccc(C(N)=O)cc3)CS[C@H]12)c1nsc(N)n1 [Example 158, 7β-[2-(5-Amino-1,2,4-thiadiazol-3-yl)-(Z)-2-cyanomethoxyiminoacetoamido]-3-[(E)-3-(4-carbamoylpyridinio)-1-propen-1-yl]-3-cephem-4-carboxylate] |  |  | ≤ 0.025 | 0.1 (≈ 0.176 µM) |  | 0.1 (≈ 0.176 µM) | 0.2 (≈ 0.351 µM) |  | ≤ 0.025 | 1.56 (≈ 2.74 µM) |  |  |  |  |  |  |
| C[N+](C)(C/C=C/C1=C(C(=O)[O-])N2C(=O)[C@@H](NC(=O)/C(=N\OCC#N)c3nsc(N)n3)[C@H]2SC1)Cc1nnco1 [Example 159] |  |  | 0.05 (≈ 0.087 µM) | 0.1 (≈ 0.174 µM) |  | 0.1 (≈ 0.174 µM) | 0.4 (≈ 0.696 µM) |  | 0.05 (≈ 0.087 µM) | 1.56 (≈ 2.71 µM) |  |  |  |  |  |  |
| N#CCO/N=C(\C(=O)N[C@@H]1C(=O)N2C(C(=O)[O-])=C(/C=C/C[N+]34CCCN3CCC4)CS[C@H]12)c1nsc(N)n1 [Example 161, 7β-[2-(5-Amino-1,2,4-thiadiazol-3-yl)-(Z)-2-cyanomethoxyiminoacetoamido]-3-[(E)-3-(1,5-diazabicyclo[3.3.0]octane-1-io)-1-propen-1-yl]-3-cephem-4-carboxylate] |  |  | 0.05 (≈ 0.0893 µM) | 0.1 (≈ 0.179 µM) |  | 0.2 (≈ 0.357 µM) | 0.2 (≈ 0.357 µM) |  | 0.05 (≈ 0.0893 µM) | 1.56 (≈ 2.79 µM) |  |  |  |  |  |  |
